For data set [1], the system named is S. aureus. The experiment in a line: Membrane damage, PI staining and flow cytometry. The class given is cell-based, Staphylococcus aureus. The settings on record: 6.25 μM peptide, 30 min. On the procedure: Propidium iodide (PI) was utilized as a marker for assessing the structural integrity of cell membranes and the occurrence of cell death. The impact of peptides on BEAS-2B cells, E. coli, and S. aureus was investigated by treating the cells with peptides followed by PI staining and flow cytometry (FACS) analysis to evaluate peptide-induced membrane damage. Table 5 presents the results of PI staining in BEAS-2B cells (1 × 10^6) following treatment with peptides at a concentration of 6.25 μM. […] FACS analysis at a peptide concentration of 6.25 μM was employed to determine the membrane damage caused by peptides in E. coli and S. aureus cells (Table 5).
Peptide-induced membrane damage was evaluated by quantifying the influx of propidium iodide (PI). BEAS-2B cells (1 × 10^6 cells in 50 μL) were exposed to a final concentration of 6.25 μM peptide and incubated at 37 °C for 30 min, followed by PBS washing and re-suspension in PI solution (dissolved in PBS) at a final concentration of 2 μg/mL. Bacteria were cultured to mid-log phase at 37 °C, then diluted to an OD600 of 0.5 in phosphate-buffered saline (PBS). […] The bacteria were harvested and re-suspended in PI solution, with fluorescence signal analysis conducted using flow cytometry (Cytomics FC 500, Beckman Coulter, Indianapolis, IN, USA).

Data set [2] relates to five bacterial strains. Briefly: MICs against all five bacterial strains (geometric mean, range). The conditions noted are these: geometric mean of MICs against all five bacterial strains. Set-up: unit not given here. The class given is cell-based. The method, boiled down:
(§1)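 Modified CLSI broth microdilution: mid-log bacteria from LB culture were adjusted to 1 × 10^6 CFU/mL and mixed 1:1 with peptide serially diluted in PBS. After 18 to 20 h at 37 °C, growth was read as absorbance at 600 nm.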

Data set [3] can be described thus: CD spectra, secondary structure by BeStSel. The class given is physicochemical. The settings on record: 30 μM SDS as printed, 100 μM peptide, 25 °C. The method, boiled down:
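Far-UV CD spectra (190–250 nm) of peptides at 100 μM in SDS, 0.1 cm cells, 25 °C under nitrogen. Secondary-structure content derived from spectra by BeStSel deconvolution.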

Data set [4] concerns human erythrocytes. Briefly: Haemolytic activity. The class given is cell-based. On the procedure: The haemolytic activity of the peptides was evaluated using a standard procedure with minor adjustments. Fresh human erythrocytes were washed thrice and subsequently resuspended at 1.25% haematocrit in PBS. Forty microlitres PBS-diluted peptide solution was added to a 96-well plate (Corning Inc., Lowell, MA, USA), and 160 μL of erythrocytes was added. After incubation at 37 °C for 30 min, the samples were centrifuged, and the absorbance of the supernatant was measured at 450 nm using a multi-well microplate reader (SpectraMax M5; Molecular Devices, Sunnyvale, CA, USA) and compared with the 100% haemolysis caused by 0.1% Triton X-100. The percentage of haemolysis was calculated according to the equation: Haemolysis%=Asample−Ablank/Atriton−Ablank×100

Data set [5] has as its system Gram-negative bacteria (E. coli, P. aeruginosa, K. pneumoniae). Briefly: Geometric mean of MICs against Gram-negative bacteria. Type of data set: cell-based. Set-up: unit not given here. The essentials:
as §1

Data set [6] relates to Staphylococcus epidermidis (1.4260). The class given is cell-based. The method, boiled down: (§2)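 Broth microdilution (modified CLSI): mid-log bacteria grown in LB at 37 °C were adjusted to 1 × 10^6 CFU/mL and mixed 1:1 with PBS-diluted peptide. After 18–20 h at 37 °C, absorbance was read at 600 nm.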
Data set [7] deals with Pseudomonas aeruginosa (1.2421). Type of data set: cell-based. The essentials:
as §2

Data set [8] deals with Staphylococcus aureus (1.8721). Type of data set: cell-based. The method, boiled down:
as §2

The values below come from PMC11546786, “Designing Analogs of SAAP-148 with Enhanced Antimicrobial and Anti-LPS Activities” (International Journal of Molecular Sciences, 2024).

Ends that are not written are not given here.

As to LKRVWKRVFKLKKRYWRQLKKPVR-NH2 [SAAP-7], the “percentage of PI-positive cells, S. aureus” value in data set [1] amounted to 21.1%. Moreover, the “MIC (GM)” value in data set [2] turned out to be 16.49. In data set [3], this substance had an Others of 3.4%, a Turn of 0%, a α-Helix of 48.3% and a β-Antiparallel of 48.3%. The same substance returned a β-Parallel in data set [3] of 0%. The “fold increase of MHC over that of SAAP-148” value in data set [4] stood at 133.33 fold. Also, the “GM to G−” value in data set [5] is 9.93. In addition, the “MIC S. epidermidis” value in data set [6] worked out at 12.50 µM. The “MIC P. aeruginosa” value in data set [7] is 3.13 µM. In addition, the “MIC S. aureus” value in data set [8] is 100.00 µM.
